The text below walks through data of US5726162A (priority 1996, dated 1998).

The test system of the first assay is Magnaporthe grisea (Pyricularia oryzae). The assay can be described thus: whole plant or invertebrate. The class given is in vivo, Magnaporthe grisea (Pyricularia oryzae) on M201 rice plants. To be noted: Pyricularia oryzae, 144 h, read-out: % Control RB.
Consider `CC#CCN1N=C(C=Cc2ccc(Cl)cc2)CCC1=O` [Compound 24], for which the pest or weed control at 200 ppm turned out to be 0%.

With `O=C(O)C#CCN1N=C(c2ccc(Cl)cc2)CCC1=O` [Compound 54, 6-(4-chlorophenyl)-2-(3'-carboxy-2'-propynyl)-4,5-dihydropyridazinone], the pest or weed control at 200 ppm was 0%.

As for `CC#CCN1N=C(c2ccc(Cl)c(C)c2)CCC1=O` [Compound 63], the pest or weed control at 200 ppm is 0%.

Turning to `CCC#CCN1N=C(c2ccc(C#N)cc2)CCC1=O` [Compound 64], the pest or weed control at 200 ppm is 0%.

For the compound `CCC#CCN1N=C(c2ccc([N+](=O)[O-])cc2)CCC1=O` [Compound 65], the pest or weed control at 200 ppm was determined as 0%.

Regarding `CCC#CCN1N=C(c2ccc(OCC)cc2)CCC1=O` [Compound 66], the pest or weed control at 200 ppm was determined as 0%.

For the compound `CC#CCN1N=C(c2ccc3ccccc3c2)CCC1=O` [Compound 135], the pest or weed control at 200 ppm was found to be 0%.

A further assay has as its system fungal mycelium. Description: organism not typed. Particulars: read-out: % growth inhibition. It is filed as cell-based.
For the compound `CC#CCN1N=C(C=Cc2ccc(Cl)cc2)CCC1=O` [Compound 24], the inhibition at 200 ppm is 6.1%.

For `O=C(O)C#CCN1N=C(c2ccc(Cl)cc2)CCC1=O` [Compound 54, 6-(4-chlorophenyl)-2-(3'-carboxy-2'-propynyl)-4,5-dihydropyridazinone], the inhibition at 200 ppm was 71.4%.

As for `CC#CCN1N=C(c2ccc(Cl)c(C)c2)CCC1=O` [Compound 63], the inhibition at 200 ppm worked out at 100%.

As to `CCC#CCN1N=C(c2ccc(C#N)cc2)CCC1=O` [Compound 64], the inhibition at 25 ppm worked out at 100%.

In the case of `CCC#CCN1N=C(c2ccc([N+](=O)[O-])cc2)CCC1=O` [Compound 65], the inhibition at 50 ppm came to 84%.

Take `CCC#CCN1N=C(c2ccc(OCC)cc2)CCC1=O` [Compound 66]: the inhibition at 25 ppm worked out at 100%.

As for `CCC#CCN1N=C(c2ccc(Br)c(F)c2)CCC1=O` [Compound 97], the inhibition at 1 ppm is 100%.

Take `CCC#CCN1N=C(c2cc(F)cc(F)c2)CCC1=O` [Compound 98]: the inhibition at 10 ppm was found to be 40%.

For the compound `CCC#CCn1nc(-c2cc(F)cc(F)c2)ccc1=O` [Compound 126], the inhibition at 10 ppm turned out to be 100%.

For the compound `CCC#CCN1N=C(c2ccc(Cl)cc2)COC1=O` [Compound 162, 2-(4-chlorophenyl)-3-(2-pentyn-1-yl)-3H, 6H-1,3,4-oxadiazin-2-one], the inhibition at 10 ppm was found to be 96.9%.

For `CC#CCN1N=C(c2ccc(Cl)cc2)COC1=O` [Compound 163], the inhibition at 10 ppm turned out to be 12.7%.

As for `CCC#CCN1N=C(c2ccccc2)COC1=O` [Compound 164], the inhibition at 100 ppm worked out at 14.2%.

For `CCC#CCN1N=C(c2ccc(Cl)cc2)CSC1=O` [Compound 165, 5-(4-chlorophenyl)-3-(2-pentyn-1-yl)-3H,6H-1,3,4-thiadiazin-2-one], the inhibition at 100 ppm was 100%.

`CCC#CCN1N=C2c3ccc(Cl)cc3CCC2CC1=O` (stereo not shown) [Compound 200, 4,4a,5,6-tetrahydro-8-chloro[h]-cinnolin-2-(2'-pentynyl)-3-one]: the inhibition at 10 ppm is 100%.

For `CN1N=C(c2ccc(Cl)cc2)CCC1=O` [Compound 201, 6-(4-chlorophenyl)-2-methyl-4,5-dihydropyridazinone], the inhibition at 10 ppm was found to be 10%.

Take `CCC#CCn1nc2c(cc1=O)CCc1cc(Cl)ccc1-2` [Compound 202, 5 6-dihydro-8-chlorobenzo[h]cinnolin-3-(2'-pentynyl)-one]: the inhibition at 10 ppm worked out at 100%.

With `CCC#CCC1CC(c2ccc(Cl)cc2)=NN(C)C1=O` (stereo not shown) [Compound 203, 6-(4-chlorophenyl)-4-(2'-pentynyl)-2-methyl-4,5-dihydropyridazinone], the inhibition at 10 ppm worked out at 100%.

Regarding `Cc1ccc(Cn2nc(-c3ccc(Cl)cc3)ccc2=O)o1` [Compound 204, 6-(4-chlorophenyl)-2-(5-methyl-2-furanylmethylene)-pyridazinone], the inhibition at 10 ppm was found to be 100%.

Regarding `CCC#CCN1N=C(C=Cc2ccc(Cl)cc2)CCC1=O` [Compound 205, 6-(4-chlorostyryl)-2-(2'-pentynyl)-4,5-dihydropyridazinone], the inhibition at 10 ppm was determined as 100%.

On to `CCC#CCN1N=C(CCc2ccc(Cl)cc2)CCC1=O` [Compound 206, 6-(4-chlorophenethyl)-2-(2'-pentynyl)-4,5-dihydropyridazinone], for which the inhibition at 1 ppm came to 14.3%.

As to `CCC#CCN1N=C(c2ccc3c(c2)OCO3)CCC1=O` [Compound 207, 6-(3,4-methylenedioxyphenyl)-2-(2'-pentynyl)-4,5-dihydropyridazinone], the inhibition at 1 ppm turned out to be 100%.

Regarding `CCC#CC(C)N1N=C(c2ccc(Cl)cc2)CCC1=O` (stereo not shown) [Compound 208, 6-(4-chlorophenyl)-2-(1-methyl-2-pentynyl)-4,5-dihydropyridazinone], the inhibition at 1 ppm was determined as 28.6%.

On to `CCC#CCN1N=C(c2ccccc2F)CCC1=O` [Compound 209, 6-(2-fluorophenyl)-2-(2'-pentynyl)-4,5-dihydropyridazinone], for which the inhibition at 50 ppm worked out at 85.7%.

For the compound `CCC#CCN1N=C(c2ccccc2C)CCC1=O` [Compound 210, 6-(2-methylphenyl)-2-(2'-pentynyl)-4,5-dihydropyridazinone], the inhibition at 50 ppm was determined as 35%.

With `CCC#CCN1N=C(c2ccccc2Cl)CCC1=O` [Compound 211, 6-(2-chlorophenyl)-2-(2'-pentynyl)-4,5-dihydropyridazinone], the inhibition at 50 ppm was determined as 30%.

With `CCC#CCN1N=C(c2ccccc2OC)CCC1=O` [Compound 212, 6-(2-methoxyphenyl)-2-(2'-pentynyl)-4,5-dihydropyridazinone], the inhibition at 50 ppm was 35%.

As for `CCC#CCN1N=C(c2cccc(C(F)(F)F)c2)CCC1=O` [Compound 213, 6-(3-trifluoromethylphenyl)-2-(2'-pentynyl)-4,5-dihydropyridazinone], the inhibition at 50 ppm turned out to be 100%.

As for `CCC#CCN1N=C(c2cccc(F)c2)CCC1=O` [Compound 214, 6-(3-fluorophenyl)-2-(2'-pentynyl)-4,5-dihydropyridazinone], the inhibition at 50 ppm is 100%.

For the compound `CCC#CCN1N=C(c2cccc(C)c2)CCC1=O` [Compound 215, 6-(3-methylphenyl)-2-(2'-pentynyl)-4,5-dihydropyridazinone], the inhibition at 50 ppm was 100%.

`CCC#CCN1N=C(c2cccc(Cl)c2)CCC1=O` [Compound 216, 6-(3-chlorophenyl)-2-(2'-pentynyl)-4,5-dihydropyridazinone]: the inhibition at 50 ppm is 100%.

For `CCC#CCN1N=C(c2cccc(C#N)c2)CCC1=O` [Compound 217, 6-(3-cyanophenyl)-2-(2'-pentynyl)-4,5-dihydropyridazinone], the inhibition at 50 ppm was determined as 100%.

Regarding `CCC#CCN1N=C(c2cccc([N+](=O)[O-])c2)CCC1=O` [Compound 218, 6-(3-nitrophenyl)-2-(2'-pentynyl)-4,5-dihydropyridazinone], the inhibition at 50 ppm amounted to 100%.

Take `CCC#CCN1N=C(c2cccc(OC)c2)CCC1=O` [Compound 219, 6-(3-methoxyphenyl)-2-(2'-pentynyl)-4,5-dihydropyridazinone]: the inhibition at 50 ppm was found to be 100%.

With `CCC#CCN1N=C(c2ccc(C)c(OC)c2)CCC1=O` [Compound 220, 6-(3-methoxy-4-methylphenyl)-2-(2'-pentynyl)-4,5-dihydropyridazinone], the inhibition at 50 ppm stood at 100%.

With `CCC#CCN1N=C(c2ccc(F)c(F)c2)CCC1=O` [Compound 224, 6-(3,4-difluorophenyl)-2-(2'-pentynyl)-4,5-dihydropyridazinone], the inhibition at 50 ppm was 100%.

As for `CCC#CCN1N=C(c2ccc(C)c(F)c2)CCC1=O` [Compound 225, 6-(3-fluoro-4-methylphenyl)-2-(2'-pentynyl)-4,5-dihydropyridazinone], the inhibition at 50 ppm was found to be 100%.

In the case of `CCC#CCN1N=C(c2ccc(OC)c(C)c2)CCC1=O` [Compound 226], the inhibition at 50 ppm was 100%.

For `CCC#CCN1N=C(c2ccc3c(c2)CCc2ccccc2-3)CCC1=O` [Compound 227, 6-(9,10-dihydro-2-phenanthrene)-2-(2'-pentynyl)-4,5-dihydropyridazinone], the inhibition at 10 ppm turned out to be 30%.

With `CCC#CCn1nc(-c2ccccc2)c(-c2ccccc2)c(C#N)c1=O` [Compound 228, 5,6-diphenyl-4-cyano-2-(2'-pentynyl)-pyridazinone], the inhibition at 10 ppm is 50%.

In the case of `CCC#CCN1N=C(c2cnc3ccccc3n2)CCC1=O` [Compound 230, 6-(2-quinoxaline)-2-(2'-pentynyl)-4,5-dihydropyridazinone], the inhibition at 10 ppm worked out at 30%.

As for `Cc1noc(C)c1CN1N=C(c2ccc(Cl)cc2)CCC1=O` [Compound 231, 6-(4-chlorophenyl)-2-(3,5-dimethyl-4-isoxolylmethyl)-4,5-dihydropyridazinone], the inhibition at 10 ppm turned out to be 36%.

For the compound `CCC#CCn1nc2c(cc1=O)-c1cccc3cccc-2c13` [Compound 232, 8-(2'-pentynyl)-acenaphtho[1,2c]pyridazin-9-one], the inhibition at 5 ppm came out at 45.5%.

Regarding `NNC(=O)CN1N=C(c2ccc(Cl)cc2)CCC1=O` [Compound 233, 6-(4-chlorophenyl)-2-(acetyl hydrazide)4,5-dihydropyridazinone], the inhibition at 100 ppm is 21%.

With `CC(=O)CC(C)=NNC(=O)CN1N=C(c2ccc(Cl)cc2)CCC1=O` [Compound 234, 6-(4-chlorophenyl)-2-[N-acetylhydrazide-(N'-2,4-pentanedione-hydrazone)]-4,5-dihydropyridazinone], the inhibition at 100 ppm worked out at 42%.

For `CCC#CCN1N=C(c2csc3ccccc23)CCC1=O` [Compound 235, 6-(3-thianaphthene)-2-(2'-pentynyl)-4,5-dihydropyridazinone], the inhibition at 100 ppm came to 100%.

Turning to `CCC#CCn1nc(-c2csc3ccccc23)ccc1=O` [Compound 236, 6-(3-thianaphthene)-2-(2'-pentynyl)-pyridazinone], the inhibition at 100 ppm is 100%.

Consider `Cc1cc(C)n(C(=O)CN2N=C(c3ccc(Cl)cc3)CCC2=O)n1` [Compound 237, 6-(4-chlorophenyl)-2-(3,5-dimethyl-1-pyrazoylmethylene)-4,5-dihydropyridazinone], for which the inhibition at 100 ppm was 58%.

Turning to `O=C1CCC(c2ccc(Cl)cc2)=NN1Cc1n[nH]c(=O)o1` [Compound 238], the inhibition at 100 ppm turned out to be 31.6%.

In the case of `CCC#CCn1nc(CN2N=C(c3ccc(Cl)cc3)CCC2=O)oc1=O` [Compound 239], the inhibition at 100 ppm is 100%.

For the compound `O=C(CN1N=C(c2ccc(Cl)cc2)CCC1=O)NN=Cc1cc(Cl)cc(Cl)c1O` [Compound 240, 6-(4-chlorophenyl)-2-[N-acetylhydrazide-(N'-3,5-dichloro-2-hydroxy-phenylhydrazone)]-4,5-dihydropyridazinone], the inhibition at 100 ppm turned out to be 14%.

Turning to `O=C1CCC(c2ccc(Cl)cc2)=NN1Cc1nn(CC#CI)c(=O)o1` [Compound 241], the inhibition at 100 ppm is 100%.

In general, inhibition refers to the drop in the measured response relative to a control, in per cent.
